# According to patent US20050255493A1, “Molecular targeting of the IGF-1 receptor” (priority 2002, published 2005):
# Assays:
# IR = IR level by immunoblotting in transfected MDA-231 cells; format: cell-based, human
# Experimental: (§1) The human and murine cell lines used in this study were cultured in RPMI 1640 plus 10% FCS at 37° C. in a humidified atmosphere of 5% CO2. The cultures were negative when tested for Mycoplasma infection. Cultures were passaged the day before transfection to achieve 30-50% confluence the following day. Initial transfections of ASOs used 1-2.5 μg/ml Cytofectin (Glen Research, Sterling, Va.), according to the manufacturer's instructions. Latterly Oligofectamine (Life Sciences) has been used for all ASO and RNAi transfections. The method was as described (see manufacturer's instructions and www.dharmacon.com) with minor modifications. For transfection of monolayers seeded in 6 well plates, 5 μl phosphorothioate oligonucleotide or RNA duplex at 100× final concentration were mixed with 2501 serum-free Optimem (Gibco-BRL). In a separate tube 2 μl Oligofectamine was mixed with 68 μl Optimem. After 10 min incubation at room temperature the contents of the two tubes were mixed and incubated for a further 25 min at room temperature. Monolayers were washed with 1-2 ml Optimem. To the cells were added 175 μl Optimem followed by the 325 μl complexes. Volumes were scaled up by factors of 2.22 or 6.05 for transfection in 60 mm or 100 mm dishes respectively. Cultures were incubated at 37° C. for 4 hr, and then 50 μl FCS and 3.5 ml RPMI plus 5% FCS were added to each well. After 48 hr incubation effects on IGF1R and IR expression were determined by immunoblotting. Some transfected cultures were serum-starved overnight, divided into two aliquots and treated with 10 nM Long R3-IGF-I (GroPep, Adelaide) or diluent for 30 min at 37° C. prior to lysis.
# (§2) IGF1R expression was assessed by immunoblotting as previously described (Macaulay et al 2001). After washing in ice-cold PBS, cells were lysed in 50 mM Hepes pH 7.5, 100 mM NaCl, 10 mM EDTA, 1% Triton-X-100, 4 mM sodium pyrophosphate, 2 mM sodium orthovanadate, 10 mM sodium fluoride, 1 mM PMSF, 2 μg/ml each leupeptin and aprotinin. Lysates were centrifuged for 15 minutes at 14,000 g, the protein concentration of supernatants was measured using BCA assay reagent (Pierce), and equivalent amounts of protein were separated on 7.5% SDS-PAGE gels and transferred to nitrocellulose. Target protein levels were assessed using antibodies to the β-subunit of the IGF1R or IR (Santa Cruz), phospho-Ser 473 Akt or total Akt (Cell Signalling, New England Biolabs) or β-tubulin (Sigma). Activated IGF1R was detected by immunoprecipitation for phosphotyrosine (P-Tyr-100, Cell Signaling Technology). Primary antibodies were detected with HRP-conjugated secondary antibodies (Dako), and ECL Plus (Amersham Pharmacia).
# (§3) The ASOs and RNAi duplexes were transfected into MDA-231 cells (human ER negative breast cancer) using Cytofectin or Oligofectamine, as described above. After 48 hr the cells were lysed, and IGF1R and IR levels were measured by immunoblotting. The intensity of the autoradiographic bands was quantified by densitometry, and IGF1R (or IR) levels were corrected for loading differences. The specific IGF1R or IR results are presented as % IGF1R (or IR) level of that in cells transfected with the same concentration of an appropriate control. This was a scrambled control oligonucleotide for ASOs, and an inverted RNA duplex for RNAi.
# IGF1R [1] = test: IGF1R expression in UC101 ovarian cancer cells treated with 18mer ASOs; format: cell-based, human
# Experimental: as §1, with “Volumes were scaled up by factors of 2.22 or 6.05 for transfection in 60 mm or 100 mm dishes respectively. Cultures were incubated at 37° C. for 4 hr, and then 50 μl FCS and 3.5 ml RPMI plus 5% FCS were added to each well.” left out, “Some transfected cultures were serum-starved overnight, divided into two aliquots and treated with 10 nM Long R3-IGF-I (GroPep, Adelaide) or diluent for 30 min at 37° C. prior to lysis.” left out
# as §2, with “After washing in ice-cold PBS, cells were lysed in 50 mM Hepes pH 7.5, 100 mM NaCl, 10 mM EDTA, 1% Triton-X-100, 4 mM sodium pyrophosphate, 2 mM sodium orthovanadate, 10 mM sodium fluoride, 1 mM PMSF, 2 μg/ml each leupeptin and aprotinin.” left out, “Pharmacia). […]” for “Pharmacia).”
# IGF1R mRNA = test: Oligonucleotide scanning array hybridisation with labelled transcript; format: binding, human; settings: for Rel hyb intensity: relative to the most strongly hybridising sequence on the array; for Hyb intensity: scanning array probed with labelled IGF1R mRNA
# Experimental: Scanning arrays complementary to the region of the IGF1R mRNA from position 537-685 were prepared using the standard techniques described in Southern E. M. et al., Nucleic Acids Res., 1994, 22(8): 1368-1373; and Sohail, M. and Southern, E. M. “Using oligonucleotide scanning arrays to find effective antisense reagents”, Methods in Molecular Biology, vol. 170: DNA Arrays: Methods and Protocols, Ed J. B. Rampal, Humana Press Inc., Totowa, N.J.
# The scanning arrays comprise sets of oligonucleotides of various lengths. A series of oligonucleotides, complementary to the target mRNA, is made by sequential coupling of nucleotides to a solid surface. The DNA synthesis reagents are applied to a confined area on the surface of the solid support using a mask. The mask is shifted along the surface after each round of coupling, resulting in a series of oligonucleotides each complementary to a region of the target sequence.
# • 2. Remove 1 μL for quantitation (see below). • 3. Remove unincorporated label by Sephadex® G25 column chromatography (see Note 11). • 4. Save 1 μL of the purified transcript for quantitation (see below). • 5. Check the integrity of the transcript by denaturing polyacrylamide gel electrophoresis (10). • 6. Add 10 μL of the scintillation fluid to the samples saved in Steps 2 and 4. • 7. Mix by vortexing and count the samples in a scintillation counter for 1 min. • 8. Calculate the percent incorporation: [formula] • 9. Calculate the amount of RNA made: [formula] Hybridisation to Arrays Made on Polypropylene • 1. Place the array in the hybridisation tube, coiling it in a spiral. • 2. Dilute the radiolabelled transcript in an appropriate volume (10-20 mL depending upon the size of the array and the hybridisation tube) of hybridisation buffer. The mix should cover the array along the length of the tube. • 3. Place items 1 and 2 in the oven at desired temperature for 30 min. Also put approximately 100 mL of the hybridisation buffer in the oven: this is to be used to wash the array at the end of hybridisation. • 4. Pour the hybridisation mix into the tube containing the array and hybridise for 3-4 h. • 5. Remove the hybridisation mix. Briefly wash the array with the hybridisation buffer from Step 3, air dry, cover with cling film and expose to a storage phosphor screen for 16-20 h (see Note 12). • 6. Scan the screen on PhosphorImager or STORM and analyse the image using xvseq (see below). Hybridisation to Arrays Made on Glass • 1. Clean the non-array glass plate with acetone and ethanol to ensure it is grease-free and siliconise it by treatment with dimethyl dichlorosilane solution and place it in lidded box. Also place moist paper towel in the box. • 2. Dilute the radiolabelled transcript in an appropriate volume of the hybridisation buffer (for example, for an array of 250 mm×50 mm use 500-750 μL). • 3. Place items 1 and 2 in an incubator at desired temprature for 30 min. Also put approximately 100 mL of the hybridisation buffer in the oven: this is to be used to wash the array at the end of hybridisation. • 4. Using a micropipette, pipette the hybridisation mix in a line evenly along the length of the non-array glass plate, avoiding formation of air bubbles. • 5. Starting at one end, carefully place the scanning array (face down) on top of the hybridisation mix. The mix will spread out and form a thin film between the two plates. Incubate for 3-4 h. • 6. Separate the plates from each other and wash the array plate with hybridisation buffer to remove unbound mix. Drain the plate, air dry, cover with cling film and expose to a storage phosphor screen for 16-20 h. • 7. Scan the screen on PhosphorImager or STORM and analyse the image using xvseq (see below). Alternative Hybridisation Protocol for Glass or Polypropylene • 1. Assemble with clips the array plate (or polypropylene array pasted with PhotoMount™ on a glass plate) and the non-array plate, using rubber tubing as spacers on two sides. • 2. […]
# IGF1R [2] = test: IGF1R levels by immunoblotting in human tumour cell lines transfected with RNAi duplexes; format: cell-based; settings: human ovarian (UC101) and prostate (DU145) cancer cells, 10 nM
# Experimental: as §1
# as §2, with “Pharmacia). […]” for “Pharmacia).”
# Tumour cells were transfected with 10 nM duplexes and IGF1R levels were measured after 48 hr. After correction for loading differences IGF1R levels in cells transfected with RNAi were expressed as % of levels in cells transfected with equivalent inverted control duplex.
# MDA-MB-231 cells = test: Clonogenic survival and post-irradiation survival (SF2) of transfected MDA-MB-231 cells; format: cell-based, human; settings: MDA-MB-231, 100 nM, unirradiated
# Experimental: FIG. 7 A) MDA-MB-231 cells transfected with 100 nM RNA duplexes were serum-starved overnight and treated with 50 nM IGF-I for 30 min. […] Results represent mean±sem of colony counts in triplicate dishes. Similar results were obtained in two further clonogenic assays. • C) Clonogenic survival of transfected MDA-MB-231 cells that were unirradiated or irradiated at 2Gy. The fraction surviving 2Gy irradiation (SF2) is shown as mean±sem of three independent assays.
# The effect of transfection with 100 nM ASO4 or siRNA duplexes R4 and R5, equivalent to strongly and weakly hybridizing ASOs respectively, on colony forming efficiency and post-irradiation survival was also evaluated. […] This in turn illustrates the utility of hybridisation to the scanning ASO array in the selection of siRNA reagents, since relative hybridisation to the array is found to be predictive of activity in RNA interference and biological efficacy.
# [3] = system: UC101 human ovarian cancer cells; test: Tumorigenicity of UC101 ovarian cancer cells transfected with siRNA (xenografts); format: in vivo, female athymic (nu/nu mice); settings: UC101 cells transfected with 200 nM siRNA, nu/nu mice
# Experimental: UC101 ovarian cancer cells were transfected with 200 nM siRNA, mixed with irradiated NIH-3T3 cells and inoculated into the flanks of female athymic (nu/nu mice).
# Tumorigenicity testing was conducted using UC101 human ovarian cancer cells transfected with 200 nM siRNA. After 48 hr the cells were inoculated into the flanks of female athymic (nu/nu mice), using 5×10^6 tumour cells mixed with 5×10^6 irradiated NIH-3T3 cells per mouse. Tumours were measured and volumes calculated as described (Macaulay et al., Oncogene 20: 2029-40, 2001). All procedures were performed in accordance with the Home Office Scientific Procedures Act 1986, and with the approval of the Animal Ethics Committee of Cancer Research UK.
# IGF1R [4] = test: IGF1R level by immunoblotting in transfected MDA-231 cells; format: cell-based, human; settings: MDA-231 cells, 300 nM ASO, 48 hr, vs scrambled control
# Experimental: as §1, §2, §3
substance,measurement,setting,value
"TSS ASO: ASO TCCTCCGGAGCCAGACTT, SEQ ID NO:21, complementary to human IGF1R translation initiation site, identical to that described by Baserga et al. (DNA, all phosphorothioate, methylation of C not given here) [reference compound]",IR downregulation,IR; TSS ASO at 300 nM,detectable reduction in IR levels
same,"IGF1R expression, % of levels in cells treated with scrambled control",IGF1R [1],33% of levels in cells treated with
"ASO2/18mer: phosphorothioate antisense oligonucleotide GGTCTTCTCACACATCGG, SEQ ID NO:6 (DNA, all phosphorothioate, methylation of C not given here)",Rel hyb intensity,IGF1R mRNA,1.00
same,Hyb intensity,IGF1R mRNA,"56,026"
same,"IGF1R expression, % of levels in cells treated with scrambled control",IGF1R [1],39% of levels in cells treated with Scr2
"R5: RNAi duplex UGAGUACAACUACCGCUGCTT / TTACUCAUGUUGAUGGCGACG, SEQ ID NO:32 (UGAGUACAACUACCGCUGCNN; second strand not cited, chemistry not fully specified)","IGF1R downregulation, R4 compared with R5",IGF1R [2],induced IGF1R downregulation
same,Clonogenic survival,MDA-MB-231 cells,inhibited survival
same,Tumour development,[3],rapidly growing tumours
"ASO6: phosphorothioate antisense oligonucleotide CTTATTCCCCACAATGTA, SEQ ID NO:17; poorly hybridising comparison (DNA, all phosphorothioate, methylation of C not given here)",Hybridisation to IGF1R mRNA on scanning array,IGF1R mRNA; 37° C. (and 23° C.),hybridises poorly
same,Rel hyb intensity,IGF1R mRNA,0.01
same,Hyb intensity,IGF1R mRNA,560
same,IGF1R Protein Level (% control),IGF1R [4],˜150 % control
same,IR Protein Level (% control),"IR; 300 nM ASO, 48 hr, vs scrambled control",100 % control
same,"IGF1R expression, % of levels in cells treated with scrambled control",IGF1R [1],98% of levels in cells treated with Scr6
